Assay results as given in patent publication US6432928B1, “Complexes and their compositions” (Chinoin Gyogyszer es Vegyeszeti Termekek Gyara Rt., priority 1994, dated 2002).
In brackets after ≈: the same amount, converted by molar mass. Where two headings read alike, the source gives them in different places. One block for each molecule: values may come before it.

What was measured:
[1] = Solubility of Taxol with cyclodextrins and co-solvents, Higuchi-Connor method, HPLC; details: for solubility: Taxol with RAMEB
[2] = physchem; details: 25 °C, water
[3] = physchem; details: 22 °C, thermodynamic from solid
[4] = cited from earlier work
[5] = Appearance and Taxol content of the compositions as prepared; assay type: physicochemical; details: Taxol alone dissolved in ethanol or 1:1 ethanol and water
[6] = test system: cell line PC 3; assay: SRB-assay of cell growth, cell line PC 3; assay type: cell-based, human; details: for cell growth by SRB-assay, extinction at 540 nm / cell growth, % of control: PC 3, 10^−6M of Taxol and cyclodextrin; for cell growth, % of control: control = 100%; for toxicity to the cells, in words: PC 3, tested concentration of Table 2 (10^−6M, 0.001 mM)
Description: (§1) As control solutions containing similar amounts of cyclodextrins and no Taxol, further the Taxol-Cremophor EL composition. Cremophor EL solution and the untreated cell cultures were examined.
(§2) The experiments were carried out and evaluated on both cell lines according to the examination methods of F. Skehan et al [New Colorimetric Assay of Anticancer Drug Screening, J. Natl. Canc. Inst. 82, 1107-1113 (1990) and A. Martin and M. Clynes (Comparison of 5 Microplate Colorimetric Assays for in Vitro Cytotoxicity Testing and Cell Proliferation Assays, Cytotechnology 11, 49-58 (1993)] in the Pathological and Experimental Cancer Research Institute No. 1 of the Semmelweis Medical University, Budapest.
(§3) The cells were exposed in a RPMI 1640 medium containing 10% of Foetal Calf Serum (FCS) medium on a microplate of 96 wells, by placing 5000 cells in 100 μl of medium.
(§4) The cell cultures were treated after 24 hours with a solution containing the test substances in 100 μl of a FCS-free RPMI medium, thus the final concentration of FCS became 5%. Every evaluation point is the averaged result of 8 parallels, the control was present in 8 parallels on each plate, thus the evaluation point was obtained by averaging 24 parallels. The eight test compositions were examined simultaneously, in one test on each cell line.
(§5) After 72 and 96 hours the cell growth was measured by SRB-assay (the determining method is SRB-painting of the total protein, the total protein is proportional to the cell growth, the extinction was read by a Microplate reader at a wave length of 540 nm).

[7] = test system: cell line K562; assay: SRB-assay of cell growth, cell line K 562; assay type: cell-based, human; details: for cell growth by SRB-assay, extinction at 540 nm / cell growth, % of control: K562, 10−6M of Taxol and cyclodextrin; for cell growth, % of control: control = 100%; for toxicity to the cells, in words: K562, tested concentration of Table 3 (10−6M, 0.001 mM)
Description: as §1, §2, §3, §4, §5

[8] = cited from earlier work; remark: listed apart in the source
[9] = test system: mouse; details: mouse experiments, a 50% triacetine emulsion; cited from earlier work

remark (appearance) ([1]; Taxol 4 mg/ml with γ-CD 1:63, 2:1 ethanol:water, remark wraps over r10-r11: white suspension): white
remark (appearance) ([1]; Taxol 4 mg/ml, no CD, 2:1 ethanol:water, remark wraps over r6-r9: clear solution. opalescening. then white precipitate): clear solution.
solubility ([1]; molar ratio Taxol:CD 1:278, water): 859.9 µg/mL
solubility ([1]; molar ratio Taxol:CD 1:750, water): 42.5 µg/mL
solubility ([1]; molar ratio Taxol:CD 1:1500, water): 4.4 µg/mL
solubility ([1]; molar ratio Taxol:CD 1.300, water): 231.7 µg/mL
solubility [2]: 0.55 to 0.59 µg/mL (≈ 0.000644 to 0.000691 mM)
solubility at 24 h ([3]; 2:1 ethanol:water, aqueous with cosolvent or surfactant or cyclodextrin): 4000 µg/mL (≈ 4.68 mM)
solubility at 24 h ([3]; DIMEB in 2:1 ethanol:water, aqueous with cosolvent or surfactant or cyclodextrin): 4000 µg/mL (≈ 4.68 mM)
solubility at 24 h ([3]; DIMEB in water, aqueous with cosolvent or surfactant or cyclodextrin): ~1000 µg/mL (≈ 1.17 mM)
solubility at 24 h ([3]; OH-P-βCD in water, aqueous with cosolvent or surfactant or cyclodextrin): 100 µg/mL (≈ 0.117 mM)
solubility at 24 h ([3]; RAMEB in 2:1 ethanol-water, aqueous with cosolvent or surfactant or cyclodextrin): 4000 µg/mL (≈ 4.68 mM)
solubility at 24 h ([3]; RAMEB in ethanol-water, aqueous with cosolvent or surfactant or cyclodextrin): 4000 µg/mL (≈ 4.68 mM)
solubility at 24 h ([3]; water): 5.9 µg/mL (≈ 0.00691 mM)
solubility at 24 h ([3]; γ-CD in 2:1 ethanol:water, aqueous with cosolvent or surfactant or cyclodextrin): 4000 µg/mL (≈ 4.68 mM)
behaviour on dilution [5]: immediately precipitates when diluted
Structure (SMILES): CC(=O)O[C@H]1C(=O)[C@@]2(C)[C@H]([C@H](OC(=O)c3ccccc3)[C@]3(O)C[C@H](OC(=O)[C@H](O)[C@@H](NC(=O)c4ccccc4)c4ccccc4)C(C)=C1C3(C)C)[C@]1(OC(C)=O)CO[C@@H]1C[C@@H]2O (relative stereo) [Taxol, [2aR-[2aα,4β,4αβ,6β,9α(αR*,βS*a11α,12α,12aα,12bα]]-β-(benzoylamino)-α-hydroxy-benzene-propanoic acid 6,12-b-bis(acetyloxy)-12-(benzoyloxy)-2a,3-4,4a,5,6,9,10,11,12,12a,12b-dodecahydro-4,11-dihydroxy-4a,8,13,13-tetra-methyl-5-oxo-7,11-methano-1H-cyklodeca[3,4]-benz-[1,2-b]-oxeth-9-yl-ester]]
solubility ([4]; 250-350 moles of a methylated cyclodextrin derivative related to 1 mole of Taxol (Hungarian application P93 01373)): about 1 mg/ml
solubility of Taxol ([4]; mixed micelle system with bile acid salts and phospholipide): 800 µg/mL
solubility ([4]; with γ-cyclodextrin, molar ratio of 1:20): 160 µg/mL

Structure (SMILES): COC[C@H]1O[C@@H]2O[C@H]3[C@H](O)[C@@H](OC)[C@@H](O[C@H]4[C@H](O)[C@@H](OC)[C@@H](O[C@H]5[C@H](O)[C@@H](OC)[C@@H](O[C@H]6[C@H](O)[C@@H](OC)[C@@H](O[C@H]7[C@H](O)[C@@H](OC)[C@@H](O[C@H]8[C@H](O)[C@@H](OC)[C@@H](O[C@H]1[C@H](O)[C@H]2OC)O[C@@H]8COC)O[C@@H]7COC)O[C@@H]6COC)O[C@@H]5COC)O[C@@H]4COC)O[C@@H]3COC [DIMEB, heptakis-2,6-0-dimethyl-β-cyclodextrin]
cell growth by SRB-assay, extinction at 540 nm ([6]; incubation time 72 hours): 0.725 ± 0.200
cell growth, % of control ([6]; incubation time 72 hours): (96%)
cell growth, % of control ([6]; incubation time 96 hours): (102%)
toxicity to the cells, in words [6]: not toxic
cell growth by SRB-assay, extinction at 540 nm ([7]; incubation time 72 hours): 0.819 ± 0.178
cell growth, % of control ([7]; incubation time 72 hours): (74%)
cell growth by SRB-assay, extinction at 540 nm ([7]; incubation time 96 hours): 1.729 ± 0.185
cell growth, % of control ([7]; incubation time 96 hours): (110%)
toxicity to the cells, in words [7]: not toxic

Structure (SMILES): O=C(O)c1ccccc1Nc1cccc(C(F)(F)F)c1 [flufenamic acid]
“aqueous” stability constant ([8]; aqueous, without methanol): 1300 M⁻¹
stability constant ([8]; in the presence of 25% by volume methanol): about 400 M^31 1

Structure (SMILES): CC(=O)OCC(COC(C)=O)OC(C)=O [triacetine, 1,2,3-triacetyl-glycerol]
LD50 [9]: 1.2 mg/mL

Structure (SMILES): OC[C@H]1O[C@@H]2O[C@H]3[C@H](O)[C@@H](O)[C@@H](O[C@H]4[C@H](O)[C@@H](O)[C@@H](O[C@H]5[C@H](O)[C@@H](O)[C@@H](O[C@H]6[C@H](O)[C@@H](O)[C@@H](O[C@H]7[C@H](O)[C@@H](O)[C@@H](O[C@H]8[C@H](O)[C@@H](O)[C@@H](O[C@H]9[C@H](O)[C@@H](O)[C@@H](O[C@H]1[C@H](O)[C@H]2O)O[C@@H]9CO)O[C@@H]8CO)O[C@@H]7CO)O[C@@H]6CO)O[C@@H]5CO)O[C@@H]4CO)O[C@@H]3CO [γ-CD, γ-cyclodextrin]
cell growth by SRB-assay, extinction at 540 nm ([6]; incubation time 72 hours): 0.582 ± 0.126
cell growth, % of control ([6]; incubation time 72 hours): (77%)
cell growth by SRB-assay, extinction at 540 nm ([6]; incubation time 96 hours): 0.937 ± 0,214
cell growth, % of control ([6]; incubation time 96 hours): (71%)
toxicity to the cells, in words [6]: slightly toxic
cell growth by SRB-assay, extinction at 540 nm ([7]; incubation time 72 hours): 0.555 ± 0.200
cell growth, % of control ([7]; incubation time 72 hours): (50%)
cell growth by SRB-assay, extinction at 540 nm ([7]; incubation time 96 hours): 0.531 ± 0,072
cell growth, % of control ([7]; incubation time 96 hours): (34%)
toxicity to the cells, in words [7]: very toxic
